# From ChEMBL document CHEMBL1136402, “Characterization of HERG potassium channel inhibition using CoMSiA 3D QSAR and homology modeling approaches” (Bioorg Med Chem Lett, 2003)
# Target: Voltage-gated inwardly rectifying potassium channel KCNH2 (Homo sapiens, UniProt Q12809)
# Test: Inhibition of K+ channel activity in CHO cells expressing HERG Kv11.1
# Chain of Voltage-gated inwardly rectifying potassium channel KCNH2 (Q12809 whole entry): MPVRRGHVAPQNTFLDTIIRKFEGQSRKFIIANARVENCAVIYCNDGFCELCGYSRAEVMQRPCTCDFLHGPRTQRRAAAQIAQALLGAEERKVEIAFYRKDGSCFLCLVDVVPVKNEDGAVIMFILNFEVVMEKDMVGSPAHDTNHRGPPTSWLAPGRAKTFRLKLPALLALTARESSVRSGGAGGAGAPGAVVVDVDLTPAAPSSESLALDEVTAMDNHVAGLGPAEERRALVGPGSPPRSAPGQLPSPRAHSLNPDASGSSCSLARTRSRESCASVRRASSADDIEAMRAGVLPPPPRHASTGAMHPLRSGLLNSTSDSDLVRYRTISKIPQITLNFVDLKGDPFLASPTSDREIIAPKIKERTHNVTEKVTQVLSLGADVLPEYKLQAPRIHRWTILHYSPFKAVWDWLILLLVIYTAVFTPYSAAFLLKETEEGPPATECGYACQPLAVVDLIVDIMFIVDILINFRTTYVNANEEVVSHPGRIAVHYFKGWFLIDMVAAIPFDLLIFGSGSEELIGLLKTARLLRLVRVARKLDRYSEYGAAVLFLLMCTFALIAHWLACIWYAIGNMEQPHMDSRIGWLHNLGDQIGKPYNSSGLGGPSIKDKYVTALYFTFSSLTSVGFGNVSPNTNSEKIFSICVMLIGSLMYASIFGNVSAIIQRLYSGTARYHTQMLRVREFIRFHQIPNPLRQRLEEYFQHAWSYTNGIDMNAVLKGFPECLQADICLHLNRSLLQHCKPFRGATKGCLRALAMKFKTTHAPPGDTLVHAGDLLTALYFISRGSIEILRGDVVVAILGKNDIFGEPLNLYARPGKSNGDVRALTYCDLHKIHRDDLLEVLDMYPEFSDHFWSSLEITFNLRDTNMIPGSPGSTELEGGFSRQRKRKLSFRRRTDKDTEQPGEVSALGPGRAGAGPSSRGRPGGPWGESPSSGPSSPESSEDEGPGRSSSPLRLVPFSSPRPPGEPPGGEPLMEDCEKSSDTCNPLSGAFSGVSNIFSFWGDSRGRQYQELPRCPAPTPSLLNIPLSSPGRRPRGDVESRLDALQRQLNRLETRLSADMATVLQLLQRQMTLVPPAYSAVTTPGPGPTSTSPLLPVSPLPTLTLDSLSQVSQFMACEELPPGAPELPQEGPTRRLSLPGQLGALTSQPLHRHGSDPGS
row,SMILES,IC50 [µM]
1,CCC(O)c1cn(-c2ccc(F)cc2)c2ccc(Cl)cc12 (stereo not given),2.2
2,CC(=O)c1cn(-c2ccc(F)cc2)c2ccc(Cl)cc12,> 10
3,CCC(=O)c1cn(-c2ccc(F)cc2)c2ccc(Cl)cc12,1.95
4,O=C1NCCN1CCN1CC=C(c2cn(-c3ccc(F)cc3)c3ccc(Cl)cc23)CC1,0.01
5,CC(O)c1cn(-c2ccc(F)cc2)c2ccc(Cl)cc12 (stereo not given),4.55
6,O=C1NCCN1CCN1CCC(c2cn(C3CCCCC3)c3ccc(Cl)cc23)CC1,0.137
7,O=C1NCCN1CCN1CCC(C2CN(c3ccc(F)cc3)c3ccccc32)CC1 (stereo not given),0.0235
8,CCC(O)(CC)c1cn(-c2ccc(F)cc2)c2ccc(Cl)cc12,15.7
9,O=C1NCCN1CCN1CCC(c2cn(-c3ccc(F)cc3)c3ccccc23)CC1,0.007
10,CC(C)c1cn(-c2ccc(F)cc2)c2ccc(Cl)cc12,> 10
11,Fc1ccc(-n2cc(C3CCN(CCN4CCN=C4S)CC3)c3ccccc32)cc1,0.0062
12,CCCc1cn(-c2ccc(F)cc2)c2ccc(Cl)cc12,26
13,CC(C)(C)c1ccc2c(ccn2-c2ccc(F)cc2)c1,> 10
14,CCc1cn(-c2ccc(F)cc2)c2ccc(Cl)cc12,3.5
15,Fc1ccc(-n2cc(C3CCNCC3)c3cc(Cl)ccc32)cc1,0.204
